Laboratory results reported in ChEMBL document CHEMBL4483862, “Open-source discovery of chemical leads for next-generation chemoprotective antimalarials” (2018).

Test system: Plasmodium berghei
Assay: Luciferase/luciferin-expressing antifolate-resistant parasites were used to infect a culture of HepG2 cells that were pre-incubated with compounds. Infected hepatocytes emit light due to the luciferase reaction. Assay results are presented as the percent inhibition of light emission compared to control. […]
Assay type: functional
Conditions: sporozoite; for IC90: read-out: LUCIFERASE INFECTION ASSAY - IC90
[1] = read-out: LUCIFERASE INFECTION ASSAY - IC50

Work on `O=C(CCc1ccc(-c2ccccc2)o1)Nc1nc(-c2ccccn2)cs1` yielded an IC50 (FFLUC_HILL_SLOPE 12.1, FFLUC_R_SQUARED 0.705, read-out: LUCIFERASE INFECTION ASSAY - IC50) greater than 10 µM and an IC90 greater than 10 µM.
`O=C(NC1CCN(Cc2ccccc2)CC1)c1oc2ccccc2c1COc1ccccc1` gave an IC50 (PBLUC_HILL_SLOPE 25.1, PBLUC_R_SQUARED 0.225, read-out: LUCIFERASE INFECTION ASSAY - IC50) greater than 10 µM and an IC90 greater than 10 µM.
With `N#C/C(=C\c1ccc([N+](=O)[O-])s1)C(N)=S` the IC50 (FFLUC_HILL_SLOPE 3.11, FFLUC_R_SQUARED 0.767, read-out: LUCIFERASE INFECTION ASSAY - IC50) was greater than 13.8 µM and the IC90 was greater than 13.8 µM.
Work on `COc1cc(-c2cnc3cnc(-c4cccc(NC(C)=O)c4)cn23)cc(OC)c1OC` yielded an IC50 [1] of 3.93 µM and an IC90 greater than 7.89 µM.
`FC(F)(F)c1cc(Nc2ncc(-c3ccc4c(c3)OCCCO4)s2)cc(C(F)(F)F)c1` gave an IC50 [1] of 5.2 µM and an IC90 greater than 7.17 µM.
In the case of `CN(C)C(=O)c1cccc(-c2cn3c(-c4ccc(C(C)(C)C)cc4)cnc3cn2)c1`, the IC50 (PBLUC_HILL_SLOPE 1.19, PBLUC_R_SQUARED 0.783, read-out: LUCIFERASE INFECTION ASSAY - IC50) is reported as 2.27 µM and the IC90 is reported as greater than 8.28 µM.
For `Cc1ccc(CNc2nc(NCc3cccs3)nc3ccsc23)c(C)c1`, the IC50 (PBLUC_HILL_SLOPE 356, PBLUC_R_SQUARED 0.443, read-out: LUCIFERASE INFECTION ASSAY - IC50) was 1.62 µM and the IC90 was 1.63 µM.
`c1ccc(CCNc2nn3c(-c4ccsc4)cnc3s2)nc1` gave an IC50 [1] greater than 10.1 µM and an IC90 greater than 10.1 µM.
Compound `O=S(=O)(Nc1cc(F)c(Br)cc1F)c1cc(C(F)(F)F)cc(C(F)(F)F)c1` has an IC50 (HEPG2TOX_HILL_SLOPE 2.19, HEPG2TOX_R_SQUARED 0.933, PBLUC_HILL_SLOPE 2.47, PBLUC_R_SQUARED 0.245, read-out: LUCIFERASE INFECTION ASSAY - IC50) of 2.98 µM and an IC90 greater than 6.82 µM.
With `CCN(c1ccccc1)S(=O)(=O)c1ccc(C(=O)NC2CCCc3ccccc32)cc1` (stereo not given) the IC50 [1] was greater than 10 µM and the IC90 was greater than 10 µM.
Work on `CCCCNC(=S)Nc1cc(C(F)(F)F)ccc1N1CCOCC1` yielded an IC50 [1] greater than 10 µM and an IC90 greater than 10 µM.
`CNC(=O)c1cccc(Nc2ccn3nc(-c4ccccc4)cc3n2)c1` showed an IC90 of 3.76 µM.
Compound `CCCNC(=O)C(C)NC(=O)Nc1c(C)cccc1CC` (stereo not given) has an IC50 (PBLUC_HILL_SLOPE 13.4, PBLUC_R_SQUARED 0.0478, read-out: LUCIFERASE INFECTION ASSAY - IC50) greater than 10 µM and an IC90 greater than 10 µM.
Compound `O=C(Nc1nc(C23CC4CC(CC(C4)C2)C3)cs1)c1cnccn1` has an IC50 (PBLUC_HILL_SLOPE 9.13, PBLUC_R_SQUARED 0.249, read-out: LUCIFERASE INFECTION ASSAY - IC50) of 8.02 µM and an IC90 greater than 10 µM.
In the case of `O=C1NC(c2ccccc2)=C(c2nc3ccccc3s2)C(c2cccs2)N1` (stereo not given), the IC50 (FFLUC_HILL_SLOPE 4.26, FFLUC_R_SQUARED 0.397, PBLUC_HILL_SLOPE 0.406, PBLUC_R_SQUARED 0.487, read-out: LUCIFERASE INFECTION ASSAY - IC50) is reported as 3.85 µM and the IC90 is reported as greater than 10 µM.
With `O=[N+]([O-])c1ccc(NN=C2CCSC2)c(S(=O)(=O)Nc2ccc(Cl)cc2)c1` the IC50 [1] was greater than 10 µM and the IC90 was greater than 10 µM.
`O=C(CCn1ccc2ccccc21)NC(Cc1ncc[nH]1)c1ccccc1` (stereo not given) was tested, and the IC50 (PBLUC_HILL_SLOPE 8.72, PBLUC_R_SQUARED 0.12, read-out: LUCIFERASE INFECTION ASSAY - IC50) was 3.72 µM and the IC90 was 4.79 µM.
With `CC(C)N1/C(=C/c2ccc3c(c2)OCCO3)C(=O)c2ccccc2S1(=O)=O` the IC50 (HEPG2TOX_HILL_SLOPE 4.1, HEPG2TOX_R_SQUARED 0.916, PBLUC_HILL_SLOPE 3.33, PBLUC_R_SQUARED 0.555, read-out: LUCIFERASE INFECTION ASSAY - IC50) was 5.07 µM and the IC90 was greater than 8.56 µM.
Compound `CCOC(=O)c1cnn(-c2ccc(Cc3ccc(-n4ncc(C(=O)OCC)c4C)cc3)cc2)c1C` has an IC50 (PBLUC_HILL_SLOPE 1.32, PBLUC_R_SQUARED 0.439, read-out: LUCIFERASE INFECTION ASSAY - IC50) of 2.06 µM and an IC90 greater than 6.98 µM.
With `O=C(CSCCCN1CCN(c2cccc(Cl)c2)CC1)N/N=C/c1ccccc1` the IC50 [1] was greater than 7.66 µM and the IC90 was greater than 7.66 µM.
`Cc1ccsc1C(O)c1nnc(N2CCCCC2)s1` (stereo not given) showed an IC50 (PBLUC_HILL_SLOPE 1.05, PBLUC_R_SQUARED 0.691, read-out: LUCIFERASE INFECTION ASSAY - IC50) of 0.794 µM and an IC90 of 6.49 µM.
In the case of `CCC(C)NC(=O)c1c(NC(=O)C2CCCC2)nc2ccc(C)cn12` (stereo not given), the IC50 (FFLUC_HILL_SLOPE 1.17, FFLUC_R_SQUARED 0.173, read-out: LUCIFERASE INFECTION ASSAY - IC50) is reported as greater than 9.64 µM and the IC90 is reported as greater than 9.64 µM.
`O=C(/C=C/c1cccnc1)c1ccc(S(=O)(=O)NCc2ccccc2Cl)cc1` gave an IC50 (FFLUC_HILL_SLOPE 11, FFLUC_R_SQUARED 0.373, HEPG2TOX_HILL_SLOPE 8.76, HEPG2TOX_R_SQUARED 0.66, PBLUC_HILL_SLOPE 5.1, PBLUC_R_SQUARED 0.695, read-out: LUCIFERASE INFECTION ASSAY - IC50) of 3.85 µM and an IC90 of 5.93 µM.
With `Cc1cc(O)cc2c1C(=O)/C(=C/c1cc(Cl)cc3c1OCOC3)O2` the IC50 (HEPG2TOX_HILL_SLOPE 1.65, HEPG2TOX_R_SQUARED 0.863, PBLUC_HILL_SLOPE 8.6, PBLUC_R_SQUARED 0.504, read-out: LUCIFERASE INFECTION ASSAY - IC50) was 8.66 µM and the IC90 was greater than 9.57 µM.
Compound `Cc1csc(=O)n1CC(=O)Nc1ccccc1C(=O)NCc1ccco1` has an IC50 [1] greater than 10 µM and an IC90 greater than 10 µM.
`O=C(c1cnc(Nc2cccc(C(F)(F)F)c2)[nH]1)c1ccccc1O` was tested, and the IC50 (PBLUC_HILL_SLOPE 5.05, PBLUC_R_SQUARED 0.685, read-out: LUCIFERASE INFECTION ASSAY - IC50) was 4.55 µM and the IC90 was 7.03 µM.
Compound `CCCn1c(NC(=O)Cc2csc(NC(=O)c3ccco3)n2)nc2ccccc21` has an IC50 (PBLUC_HILL_SLOPE 1.19, PBLUC_R_SQUARED 0.0275, read-out: LUCIFERASE INFECTION ASSAY - IC50) greater than 10 µM and an IC90 greater than 10 µM.
`NC(Cc1ccccc1)c1csc(Nc2ccc(-c3ccccc3)nn2)n1` (stereo not given) was tested, and the IC50 (PBLUC_HILL_SLOPE 170, PBLUC_R_SQUARED 0.669, read-out: LUCIFERASE INFECTION ASSAY - IC50) was 5.74 µM and the IC90 was 5.82 µM.
`Cc1ccc(N2C(=N)C(c3nc4ccccc4s3)C(c3ccccc3)C2=O)cc1` (stereo not given) showed an IC50 (FFLUC_HILL_SLOPE 38.3, FFLUC_R_SQUARED 0.217, HEPG2TOX_HILL_SLOPE 0.75, HEPG2TOX_R_SQUARED 0.479, read-out: LUCIFERASE INFECTION ASSAY - IC50) greater than 10 µM and an IC90 greater than 10 µM.
For `OCc1ccc(-c2cn3c(-c4ccc5ncccc5c4)cnc3cn2)cc1`, the IC50 (HEPG2TOX_HILL_SLOPE 2.22, HEPG2TOX_R_SQUARED 0.955, PBLUC_HILL_SLOPE 5.03, PBLUC_R_SQUARED 0.612, read-out: LUCIFERASE INFECTION ASSAY - IC50) was 2.23 µM and the IC90 was 3.45 µM.
For `CCCOc1c(Cl)cc(C(=O)N2CCN(C)c3nc4ccccc4nc32)cc1OCC`, the IC50 [1] was greater than 10 µM and the IC90 was greater than 10 µM.
`OCCCNc1nc(-c2ccccc2)nc2sc(-c3ccccc3)cc12` gave an IC50 [1] greater than 10 µM and an IC90 greater than 10 µM.
For `CC(C)c1ccc(C2C3CCc4ccccc4C3=NN2C)cc1` (stereo not given), the IC50 [1] was 0.0716 µM and the IC90 was 0.553 µM.
`CNc1nc2cnc(-c3cccc(OC(F)(F)F)c3)cc2n1-c1cccc(F)c1` showed an IC50 (PBLUC_HILL_SLOPE 15.2, PBLUC_R_SQUARED 0.218, read-out: LUCIFERASE INFECTION ASSAY - IC50) of 9.01 µM and an IC90 greater than 10 µM.
In the case of `CN(C)C(C(=O)c1ccccc1)C(c1ccc(F)cc1)c1ccc(F)cc1` (stereo not given), the IC50 [1] is reported as greater than 10 µM and the IC90 is reported as greater than 10 µM.
For `O=C(COC(=O)c1cc(-c2ccccc2)c(N2CCOCC2)s1)c1ccc2c(c1)OCCO2`, the IC50 [1] was greater than 10 µM and the IC90 was greater than 10 µM.
`COc1ccc(CN2C(=O)N(C)C3(CCN(Cc4ccc(N5CCCC5)cc4)CC3)C2=O)cc1` was tested, and the IC50 (HEPG2TOX_HILL_SLOPE 9.02, HEPG2TOX_R_SQUARED 0.802, PBLUC_HILL_SLOPE 4.22, PBLUC_R_SQUARED 0.106, read-out: LUCIFERASE INFECTION ASSAY - IC50) was 5.16 µM and the IC90 was greater than 7.13 µM.
Compound `Cc1cc(C)c(C2C3=C(Nc4c2c(C)nn4-c2ccccn2)c2ccccc2C3=O)c(C)c1` (stereo not given) has an IC50 (FFLUC_HILL_SLOPE 11.5, FFLUC_R_SQUARED 0.374, PBLUC_HILL_SLOPE 1.59, PBLUC_R_SQUARED 0.668, read-out: LUCIFERASE INFECTION ASSAY - IC50) of 5.07 µM and an IC90 greater than 10 µM.
`O=C(NNC(=O)c1csnn1)c1ccc(Cl)cc1` was tested, and the IC50 (PBLUC_HILL_SLOPE 1.87, PBLUC_R_SQUARED 0.856, read-out: LUCIFERASE INFECTION ASSAY - IC50) was 0.277 µM and the IC90 was 0.897 µM.
`CCc1nn2c(=O)c(CC)c(C)[nH]c2c1-c1ccc(Cl)cc1` was tested, and the IC50 (FFLUC_HILL_SLOPE 10.5, FFLUC_R_SQUARED 0.352, PBLUC_HILL_SLOPE 13.5, PBLUC_R_SQUARED 0.435, read-out: LUCIFERASE INFECTION ASSAY - IC50) was 8.92 µM and the IC90 was greater than 10.4 µM.
Compound `CC(C)[C@H](NC(=O)c1ccc(Cl)cc1)C(=O)OCC(=O)NCCc1ccc(S(N)(=O)=O)cc1` has an IC50 (HEPG2TOX_HILL_SLOPE 0.118, HEPG2TOX_R_SQUARED 0.186, PBLUC_HILL_SLOPE 0.264, PBLUC_R_SQUARED 0.0178, read-out: LUCIFERASE INFECTION ASSAY - IC50) greater than 10 µM and an IC90 greater than 10 µM.
Compound `CC(OC(=O)c1cc2ccccc2[nH]1)C(=O)Nc1cccc(C#N)c1` (stereo not given) has an IC50 (HEPG2TOX_HILL_SLOPE 7.96, HEPG2TOX_R_SQUARED 0.0358, PBLUC_HILL_SLOPE 3.96, PBLUC_R_SQUARED 0.0932, read-out: LUCIFERASE INFECTION ASSAY - IC50) of 8.49 µM and an IC90 greater than 10 µM.
Compound `CCn1c(-c2cc(C(=O)c3ccccc3O)c[nH]2)nc2ccccc21` has an IC50 (HEPG2TOX_HILL_SLOPE 7.78, HEPG2TOX_R_SQUARED 0.356, PBLUC_HILL_SLOPE 1.9, PBLUC_R_SQUARED 0.373, read-out: LUCIFERASE INFECTION ASSAY - IC50) of 6.07 µM and an IC90 greater than 10 µM.
